The values that follow are results of earlier work, collected in patent US9358210B2, “Sustained-release pellets containing tacrolimus as an active ingredient” (priority 2010, dated 2016).

Structures are written as SMILES.

As to `C=CC[C@@H]1/C=C(\C)C[C@H](C)C[C@H](OC)[C@H]2O[C@@](O)(C(=O)C(=O)N3CCCC[C@H]3C(=O)O[C@H](/C(C)=C/[C@@H]3CC[C@@H](O)[C@H](OC)C3)[C@H](C)[C@@H](O)CC1=O)[C@H](C)C[C@@H]2OC` [tacrolimus, 17-allyl-1,14-dihydroxy-12-[2-(4-hydroxy-3-methoxycyclohexyl)-1-methylvinyl]-23,25-dimethoxy-13,19,21,27-tetramethyl-11,28-dioxa-4-azatricyclo[22.3.1.0]octacos-18-ene-2,3,10,16-tetraone], the solubility in water was 1 to 2 µg/mL.
